Data: patent US10618903B2, “Heteroaryl substituted aminopyridine compounds” (BRISTOL-MYERS SQUIBB COMPANY, priority 2015, dated 2020)

Experiments:
[1] = system: IL-6 levels in human whole blood stimulated with a TLR2 agonist; assay: IRAK4 Whole Blood Assay (lipoteichoic acid/TLR2-stimulated IL-6); type: cell-based; conditions: lipoteichoic acid 10 μg/mL, IL-6 readout
Protocol: Human whole blood containing the anti-coagulant ACD-A was plated in 384-well plate (25 μL/well) and incubated with compounds for 60 minutes at 37° C. in a 5% CO2 incubator. The blood was stimulated with a TLR2 agonist, 10 μg/mL final concentration of lipoteichoic acid (Invivogen, San Diego, Calif.) in 25 μL RPMI (Gibco) for 5 hours in a 5% CO2 incubator. At the end of the incubation, plates were centrifuged at 2300 rpm for 5 minutes. Supernatants were harvested and analyzed for IL-6 levels by Flow Cytometry beads assay (BD Biosciences, San Jose, Calif.).

IRAK4 = IRAK4 (Homo sapiens (Human), UniProt Q9NWZ3); assay: IRAK4 Inhibition Assay; type: biochemical; conditions: ATP 500 μM; IRAK4 0.6 nM
Summary of the method: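 Mobility-shift kinase assay: 0.6 nM IRAK4, 500 μM ATP, 1.5 μM fluorescent peptide, 60 min, room temperature. Percent inhibition was normalised between enzyme-free and DMSO-only wells.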

IRAK4, sequence (Q9NWZ3 whole entry): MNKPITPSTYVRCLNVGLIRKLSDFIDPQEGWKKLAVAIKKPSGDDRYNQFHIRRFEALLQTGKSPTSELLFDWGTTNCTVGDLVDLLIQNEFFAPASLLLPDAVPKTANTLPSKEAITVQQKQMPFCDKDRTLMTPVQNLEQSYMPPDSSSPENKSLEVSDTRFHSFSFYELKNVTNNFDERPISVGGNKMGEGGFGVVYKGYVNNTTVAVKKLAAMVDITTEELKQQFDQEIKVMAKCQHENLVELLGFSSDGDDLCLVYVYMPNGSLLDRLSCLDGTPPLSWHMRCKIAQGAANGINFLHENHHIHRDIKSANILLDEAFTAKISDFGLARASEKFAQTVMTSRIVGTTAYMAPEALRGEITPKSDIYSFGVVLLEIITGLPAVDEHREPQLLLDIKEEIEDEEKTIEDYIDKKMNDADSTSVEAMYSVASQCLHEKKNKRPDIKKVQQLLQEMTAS

| SMILES | EC50 ([1]; Homo sapiens) [nM] | IC50 (IRAK4) [nM] | EC50 [1] [nM] |
| --- | --- | --- | --- |
| CC(C)Nc1cc(-c2ccc3cc(C#N)cnn23)ncc1C(=O)NC[C@@H](F)C(C)(C)O [Example 193, (R)-6-(3-cyanopyrrolo[1,2-b]pyridazin-7-yl)-N-(2-fluoro-3-hydroxy-3-methylbutyl)-4-(isopropylamino)nicotinamide] | 260 | 4 | – |
| CO[C@H]1CC[C@H](Nc2cc(-c3cnc4cc(C#N)cnn34)ncc2C(=O)NC[C@@H](F)C(C)(C)O)CC1 [Example 196, 6-(7-cyanoimidazo[1,2-b]pyridazin-3-yl)-N—((R)-2-fluoro-3-hydroxy-3-methylbutyl)-4-(((1r,4R)-4-methoxycyclohexyl)amino) nicotinamide] | 640 | 6 | – |
| CC(C)Nc1cc(-c2cnc3cc(C#N)cnn23)ncc1C(=O)NCC(F)C1CC(C)OC(C)C1 (stereo not drawn) [Example 203, 6-(7-cyanoimidazo[1,2-b]pyridazin-3-yl)-N-(2-(2,6-dimethyltetrahydro-2H-pyran-4-yl)-2-fluoroethyl)-4-(isopropylamino)nicotinamide] | 890 | 5 | – |
| CC(C)(O)[C@H](F)CNC(=O)c1cnc(-c2cnc3cc(C#N)cnn23)cc1N[C@H]1CC[C@H](C(C)(C)O)CC1 [Example 204, 6-(7-cyanoimidazo[1,2-b]pyridazin-3-yl)-N—((R)-2-fluoro-3-hydroxy-3-methylbutyl)-4-(((1r,4R)-4-(2-hydroxypropan-2-yl)cyclohexyl)amino)nicotinamide] | 260 | 2 | – |
| CC(C)(O)[C@H](F)CNC(=O)c1cnc(-c2cnc3cc(C#N)cnn23)cc1NC1CCC(F)C1 (stereo partly drawn) [Example 208, 6-(7-cyanoimidazo[1,2-b]pyridazin-3-yl)-N—((R)-2-fluoro-3-hydroxy-3-methylbutyl)-4-((3-fluorocyclopentyl)amino)nicotinamide] | 550 | 6 | – |
| CC(C)Nc1cc(-c2cnc3cc(C#N)cnn23)ncc1C(=O)NCCc1cccs1 [Example 213, 6-(7-cyanoimidazo[1,2-b]pyridazin-3-yl)-4-(isopropylamino)-N-(2-(thiophen-2-yl)ethyl)nicotinamide] | 890 | 2 | – |
| CC(C)Nc1cc(-c2cnc3cc(C#N)cnn23)ncc1C(=O)NCCCn1ccnc1 [Example 214, N-(3-(1H-imidazol-1-yl)propyl)-6-(7-cyanoimidazo[1,2-b]pyridazin-3-yl)-4-(isopropylamino)nicotinamide] | 480 | 11 | – |
| CC(C)Nc1cc(-c2cnc3cc(C#N)cnn23)ncc1C(=O)NC1CCC(N(C)C)CC1 (stereo not drawn) [Example 215, 6-(7-cyanoimidazo[1,2-b]pyridazin-3-yl)-N-(4-(dimethylamino)cyclohexyl)-4-(isopropylamino)nicotinamide] | 600 | 4 | – |
| CC(=O)N[C@H]1CC[C@H](NC(=O)c2cnc(-c3cnc4cc(Cl)cnn34)cc2NC(C)C)CC1 [Example 219, N-((1r,4r)-4-acetamidocyclohexyl)-6-(7-chloroimidazo[1,2-b]pyridazin-3-yl)-4-(isopropylamino)nicotinamide] | 450 | 18 | – |
| CC(=O)N[C@H]1CC[C@H](NC(=O)c2cnc(-c3cnc4cc(C#N)cnn34)cc2NC(C)C)CC1 [Example 220, N-((1r,4r)-4-acetamidocyclohexyl)-6-(7-cyanoimidazo[1,2-b]pyridazin-3-yl)-4-(isopropylamino)nicotinamide] | 340 | 16 | – |
| CC(C)(O)[C@H](F)CNC(=O)c1cnc(-c2cnc3cc(C(F)F)cnn23)cc1NC1COC1 [Example 222, (R)-6-(7-(difluoromethyl)imidazo[1,2-b]pyridazin-3-yl)-N-(2-fluoro-3-hydroxy-3-methylbutyl)-4-(oxetan-3-ylamino)nicotinamide] | 630 | 7 | – |
| COC(=O)N[C@H]1CC[C@H](NC(=O)c2cnc(-c3cnc4cc(C#N)cnn34)cc2NC(C)C)CC1 [Example 223, methyl((1r,4r)-4-(6-(7-cyanoimidazo[1,2-b]pyridazin-3-yl)-4-(isopropylamino)nicotinamido)cyclohexyl)carbamate] | 810 | 13 | – |
| COC(=O)N[C@H]1CC[C@H](NC(=O)c2cnc(-c3cnc4cc(C#N)cnn34)cc2NC2(C)CC2)CC1 [Example 224, methyl ((1r,4r)-4-(6-(7-cyanoimidazo[1,2-b]pyridazin-3-yl)-4-((1-methylcyclopropyl)amino)nicotinamido)cyclohexyl)carbamate] | 570 | 7 | – |
| CC(C)n1cc(Nc2cc(-c3cnn4cc(Cl)cnc34)ncc2C(=O)NC[C@@H](F)C(C)(C)O)cn1 [Example 233, (R)-6-(6-chloropyrazolo[1,5-a]pyrimidin-3-yl)-N-(2-fluoro-3-hydroxy-3-methylbutyl)-4-((1-isopropyl-1H-pyrazol-4-yl)amino)nicotinamide] | 570 | 6 | – |
| CC(C)(O)[C@H](F)CNC(=O)c1cnc(-c2cnn3cc(C#N)cnc23)cc1Nc1cnn(C(F)F)c1 [Example 234, (R)-6-(6-cyanopyrazolo[1,5-a]pyrimidin-3-yl)-4-((1-(difluoromethyl)-1H-pyrazol-4-yl)amino)-N-(2-fluoro-3-hydroxy-3-methylbutyl)nicotinamide] | 540 | 3 | – |
| CC(C)(O)[C@H](F)CNC(=O)c1cnc(-c2cnn3cc(Cl)cnc23)cc1Nc1cnn(CC(F)(F)F)c1 [Example 237, (R)-6-(6-chloropyrazolo[1,5-a]pyrimidin-3-yl)-N-(2-fluoro-3-hydroxy-3-methylbutyl)-4-((1-(2,2,2-trifluoroethyl)-1H-pyrazol-4-yl)amino)nicotinamide] | – | 2 | 690 |
| O=C(N[C@H]1CC[C@H](O)CC1)c1cnc(-c2cnn3cc(Cl)cnc23)cc1Nc1cnn(CC(F)F)c1 [Example 252, 6-(6-chloropyrazolo[1,5-a]pyrimidin-3-yl)-4-((1-(2,2-difluoroethyl)-1H-pyrazol-4-yl)amino)-N-((1r,4r)-4-hydroxycyclohexyl) nicotinamide] | 930 | 3 | – |
| CC(C)(O)[C@H]1CC[C@H](NC(=O)c2cnc(-c3cnn4cc(Cl)cnc34)cc2Nc2cnn(C3CC3)c2)CC1 [Example 254, 6-(6-chloropyrazolo[1,5-a]pyrimidin-3-yl)-4-((1-cyclopropyl-1H-pyrazol-4-yl)amino)-N-((1r,4r)-4-(2-hydroxypropan-2-yl)cyclohexyl)nicotinamide] | 470 | 2 | – |

Second part, the compound after the results:

| EC50 ([1]; Homo sapiens) [nM] | IC50 (IRAK4) [nM] | EC50 [1] [nM] | SMILES |
| --- | --- | --- | --- |
| 620 | 2 | – | CC(C)(O)[C@H](F)CNC(=O)c1cnc(-c2cnc3cc(C#N)cnn23)cc1NC1CC1 [Example 182, (R)-6-(7-cyanoimidazo[1,2-b]pyridazin-3-yl)-4-(cyclopropylamino)-N-(2-fluoro-3-hydroxy-3-methylbutyl)nicotinamide] |
| 430 | 2 | – | C[C@@H](CF)Nc1cc(-c2cnc3cc(C#N)cnn23)ncc1C(=O)NC[C@@H](F)C(C)(C)O [Example 200, 6-(7-cyanoimidazo[1,2-b]pyridazin-3-yl)-N—((R)-2-fluoro-3-hydroxy-3-methylbutyl)-4-(((S)-1-fluoropropan-2-yl)amino)nicotinamide] |
| 750 | 2 | – | CC[C@@H](C)Nc1cc(-c2cnc3cc(Cl)cnn23)ncc1C(=O)NC[C@@H](F)C(C)(C)O [Example 202, 4-(((R)-sec-butyl)amino)-6-(7-chloroimidazo[1,2-b]pyridazin-3-yl)-N—((R)-2-fluoro-3-hydroxy-3-methylbutyl)nicotinamide] |
| 820 | 4 | – | CC(C)(O)[C@H](F)CNC(=O)c1cnc(-c2cnc3cc(Cl)cnn23)cc1NC1CC(F)(F)C1 [Example 206, (R)-6-(7-chioroimidazo[1,2-b]pyridazin-3-yl)-4-((3,3-difluorocyclobutyl)amino)-N-(2-fluoro-3-hydroxy-3-methylbutyl)nicotinamide] |
| 610 | 4 | – | CC(C)Nc1cc(-c2cnc3cc(C(F)F)cnn23)ncc1C(=O)NC[C@H](F)C(C)(C)O [Example 209, (S)-6-(7-(difluoromethyl)imidazo[1,2-b]pyridazin-3-yl)-N-(2-fluoro-3-hydroxy-3-methylbutyl)-4-(isopropylamino)nicotinamide] |
| 980 | 3 | – | CC(C)(O)[C@H](F)CNC(=O)c1cnc(-c2cnc3cc(Cl)cnn23)cc1NCCC(F)F [Example 210, (R)-6-(7-chloroimidazo[1,2-b]pyridazin-3-yl)-4-((3,3-difluoropropyl)amino)-N-(2-fluoro-3-hydroxy-3-methylbutyl)nicotinamide] |
| 940 | 2 | – | CC(C)(O)[C@H](F)CNC(=O)c1cnc(-c2cnc3cc(C#N)cnn23)cc1NCCC(F)F [Example 211, (R)-6-(7-cyanoimidazo[1,2-b]pyridazin-3-yl)-4-((3,3-difluoropropyl)amino)-N-(2-fluoro-3-hydroxy-3-methylbutyl)nicotinamide] |
| 980 | 3 | – | CC(C)Nc1cc(-c2cnc3cc(F)cnn23)ncc1C(=O)NC[C@H](F)C(C)(C)O [Example 212, (S)—N-(2-fluoro-3-hydroxy-3-methylbutyl)-6-(7-fluoroimidazo[1,2-b]pyridazin-3-yl)-4-(isopropylamino)nicotinamide] |
| 570 | 14 | – | C[C@@H](CF)Nc1cc(-c2cnc3cc(C#N)cnn23)ncc1C(=O)NCCC(C)(C)O [Example 221, (S)-6-(7-cyanoimidazo[1,2-b]pyridazin-3-yl)-4-((1-fluoropropan-2-yl)amino)-N-(3-hydroxy-3-methylbutyl)nicotinamide] |
